Results: patent publication EP2767273A1, “Death-associated protein kinases, inhibitors and activators thereof for use in pharmaceutical compositions and in predictive medicine” (UNIVERSITÄTSKLINIKUM ERLANGEN, priority 2013, dated 2014)

What was measured:
[1] = system: STAT3; assay: STAT3 Y705 phosphorylation in HCEC cells (Western blotting); assay type: cell-based, human
Method: (§1) HCEC cells were kindly provided by Professor Steinberg Pablo (Institute for Food Toxicology and Analytical Chemistry, University of Veterinary Medicine Hannover, Germany) and maintained as previously described.^31 After 24 hours of seeding, cells were either stimulated with 0.66 ng/ml TNF (ImmunoTools) for various time points. For inhibitor experiments cells were pre-incubated for one to two hours with the corresponding inhibitors.
(§2) Protein concentration was measured in duplicates using Bio-rad Dc Protein Assay (BioRad Laboratories, Hercules, CA). Equal amounts of protein were separated by 10% or 12% SDS-PAGE using Laemmli buffer system. Proteins were transferred electrophoretically to nitrocellulose membrane (Millipore Corporation, Billerica, MA, USA) and detected as recently described^33 using following antibodies, anti-DAPK (BD Transduction Laboratories, Lexington NY), anti-pDAPK^S308 (Sigma), anti-STAT3, anti-pSTAT3^γ705, anti-caspase3 (Cell Signaling Technology Inc.), anti-ß-actin (Sigma), or anti-GAPDH (Abnova GmbH, Germany).

[2] = system: IL-6; assay: IL-6 secretion in HCEC cell culture supernatants (ELISA); assay type: cell-based, human; conditions: HCEC cells
Method: as §1
IL-6 and IL-8 secretion was analyzed by ELISA according to the manufacturer's instructions (BD Biosciences; Heidelberg, Germany). […] After blocking (300 µl 3% BSA in PBS, 2 hours, RT) and washing (0.1% Tween in PBS, (PBS-T), 100 µl of undiluted or diluted supernatant was added and incubated (2 hours, RT or overnight 4°C). Thereafter, wells were washed and incubated (1.5 hours, RT) with detection antibody (1:250 diluted in 1% BSA in PBS-T) + enzyme reagent (Streptavidin-horseradish peroxidase conjugate; 1:250 diluted in detection antibody). After washing, TMB (1:1) substrate was added to each well and incubated in a dark for 20-30 minutes. Reaction was stopped with stop solution (100 µl 1 M H2SO4) and absorption was measured using spectrophotometer (Victor X3, Perkin-elmer) at a wavelength of 450 nm with a wavelength correction at 570 nm.

[3] = system: AOM-DSS tumors; assay: AOM+DSS mouse model of colitis-associated tumors, treatment with DAPK-inhibitor; assay type: in vivo, mice
Method: as §2
Experimental colitis-associated tumorigenesis was performed as previously described.^43 In brief, 10mg/kg Azoxymethane (AOM; Sigma) was injected intraperitoneally into 6-8 week old C57BL/6J mice, followed by 3 cycles of DSS in drinking water. Each DSS-cycle was composed of DSS (2.5 % (w/v); MP Biomedicals) in drinking water for 7 days, followed by a recovery phase with regular drinking water for 14 days. All tumors were harvested at day 65-70.

[4] = system: DAPK; assay: DAPK protein expression/activation in HCEC cells (Western blotting); assay type: cell-based, human
Method: as §1, §2
Silencing of DAPK expression in HCEC cells was performed by the siRNA technique according to the manufacturer's instructions (Dharmacon, Chicago, IL, USA). […] At the end of the incubation period supernatants and cells were harvested and stored at -80°C until analyzed further. The knockdown efficiency was determined by Western blotting.

[5] = system: DAPK; assay: DAPK mRNA expression in HCEC cells (real time RT-PCR); assay type: cell-based, human; conditions: for DAPK mRNA enhanced: 7 µM Stattic + TNF, relative to TNF treatment
Method: as §1
Expression of IL-6, IL-8, and DAPK mRNA were analyzed by real time RT-PCR. RNA isolation (mRNeasy RNA isolation kit) and cDNA synthesis (Quantitect reverse transcriptase kit) were performed according to the manufacturer's instructions (Qiagen, Hilden, Germany). 1 µl of cDNA was amplified in a thermal cycler (Biorad CFX-96) with corresponding primers in a total volume of 25 µl using Quantifast SYBR green kit (Qiagen) under the following conditions: 95°C for 5 minutes followed by 26-40 cycles of 95°C for 10 s and 60°C for 30 s. The following primers were used, forward and reverse respectively: DAPK, 5'-[…]-3' and 5'-GATCCCGAGTGGCCAAA-3'; IL-6, 5'-[…]-3' and 5'-[…]-3'; IL-8, 5'-[…]-3' and 5'-[…]-3'; ß2microglobulin (house-keeping gene), 5'-[…]-3' and 5'-[…]-3'; murine DAPK, 5'-[…]-3' and 5'-[…]-3'; murine GAPDH (house-keeping gene), 5'-[…] -3' and 5'-[…] -3'. The results were expressed as fold induction compared to unstimulated cells after normalising to house-keeping gene. All primers were purchased from metabion (metabion international AG, Martinsried, Germany).

[6] = system: IL-6; assay: IL-6 mRNA expression in HCEC cells (real time RT-PCR); assay type: cell-based, human; conditions: AG490
Method: as §1
Expression of IL-6, IL-8, and DAPK mRNA were analyzed by real time RT-PCR. RNA isolation (mRNeasy RNA isolation kit) and cDNA synthesis (Quantitect reverse transcriptase kit) were performed according to the manufacturer's instructions (Qiagen, Hilden, Germany). 1 µl of cDNA was amplified in a thermal cycler (Biorad CFX-96) with corresponding primers in a total volume of 25 µl using Quantifast SYBR green kit (Qiagen) under the following conditions: 95°C for 5 minutes followed by 26-40 cycles of 95°C for 10 s and 60°C for 30 s. […] The results were expressed as fold induction compared to unstimulated cells after normalising to house-keeping gene. […]

[7] = AOM-DSS tumors, treated mice vs untreated control mice

O=C1OC(c2ccccc2)=N/C1=C\c1cccnc1 [DAPK inhibitor, (4Z)-2-phenyl-4-(pyridine-3-ylmethylidene)-4,5-dihydro-1,3-oxazol-5-one]
STAT3Y705 phosphorylation ([1]; 0.66 ng/ml TNF, 10 µM DAPK inhibitor, after 24, 48, and 72 hours): enhanced
TNF-induced IL-6 secretion ([2]; 0.66 ng/ml TNF, 10 µM DAPK inhibitor, after 6 and 24 hours): significantly increased
tumors in the gut (endoscopy) ([3]; AOM-DSS mice, with vs without DAPK-inhibitor): less and smaller tumors
tumor growth, atypia and architecture (immunohistochemical evaluation) ([3]; AOM-DSS mice, untreated controls: non-invasive growth, low grade atypia, simple and tubular architecture): invasively growing, showed high grade atypia, and a complex, cribiform architecture
NFκB inhibitor plκß in tumors (Western Blotting) [3, 7]: up-regulated
tumor suppressor p53 in tumors (Western Blotting) [3, 7]: down-regulated

O=[N+]([O-])c1ccc2c(c1)S(=O)(=O)C=C2 [Stattic]
TNF-induced STAT3Y705 phosphorylation down-regulated ([1]; 7 µM Stattic pre-treatment): up to 45%
DAPK protein ([4]; 7 µM Stattic + TNF): enhanced
DAPK mRNA enhanced ([5]; after 48 hours): 1-5 fold
DAPK mRNA enhanced ([5]; after 72 hours): 2.8 fold

N#C/C(=C\c1ccc(O)c(O)c1)C(=O)NCc1ccccc1 [AG490, Tyrphostin AG 490]
pSTAT3Y705 levels decreased ([1]; 20 µM AG490 prior to TNF treatment): 35%
TNF-induced DAPK protein expression ([4]; 20 µM AG490 + TNF): elevated
DAPK mRNA expression ([5]; 20 µM AG490 pre-treatment + TNF, after 72 hours): 3.3 fold
TNF-induced IL-6 secretion down-regulated ([2]; AG490): 50%
TNF-induced IL-6 mRNA expression down-regulated [6]: 50%
